Data on two compounds can be found in BindingDB's records for doi:10.1016/j.bmcl.2005.03.049 (Abbott Laboratories, 2005).

In this assay the target is Protein farnesyltransferase subunit beta/geranylgeranyltransferase type-1 subunit alpha (Bos taurus, UniProt P29702+P49355). The assay can be described thus: FTase Activity Assay. Particulars: pH 7.5; 37 °C. As for the experimental part: The in vitro activity of compounds inhibiting FTase was determined by measuring the transfer of [3H]-FPP to substrate Ha-Ras-CVLS. The incorporated radioactivity was quantified by scintillation counting.

Regarding `Cn1cncc1C(O)(c1ccc(Cl)cc1)c1ccc2ccn(-c3cccc4ccccc34)c2c1` (configuration not stated) [(4-chlorophenyl)(1-methyl-1H-imidazol-5-yl)[1-(naphthalen-1-yl)-1H-indol-6-yl]methanol], the IC50 – broadly, the concentration at which inhibition is half-maximal – came to 200 nM. The same measure for `Cn1cncc1C(O)(c1ccc(Cl)cc1)c1ccc2ccn(-c3cccc(Cl)c3)c2c1` (configuration not stated) [(4-chlorophenyl)[1-(3-chlorophenyl)-1H-indol-6-yl](1-methyl-1H-imidazol-5-yl)methanol]: 36 nM.
